Data published in patent USRE39682E1, “Farnesyl derivatives and pharmaceutical compositions containing them” (Ramot at Tel Aviv University Ltd., priority 1993, dated 2007).

Columns and labels:
[1] = target: T1, prenylated protein methyltransferase (PPMTase) (Rattus norvegicus, UniProt Q9WVM4); assay: Methylation of AFC by PPMTase in rat cerebellar synaptosomal membranes; assay type: biochemical; conditions: for Ki: Table II, given as range, read-out: Ki
T1 construct: from tissue; host or cells: rat cerebellum, synaptosomal membranes
T1 sequence (Q9WVM4 whole entry): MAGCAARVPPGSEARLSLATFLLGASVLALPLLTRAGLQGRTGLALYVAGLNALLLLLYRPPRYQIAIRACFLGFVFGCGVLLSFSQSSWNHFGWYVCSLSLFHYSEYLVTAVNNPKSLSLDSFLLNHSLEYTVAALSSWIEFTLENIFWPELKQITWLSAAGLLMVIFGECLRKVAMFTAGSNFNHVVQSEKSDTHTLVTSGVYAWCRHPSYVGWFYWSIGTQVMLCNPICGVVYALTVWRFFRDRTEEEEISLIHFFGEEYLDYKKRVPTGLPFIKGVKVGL
Excerpt: As a substrate for methylation served AFC and as the donor of methyl served [methyl-H^3] labelled AdoMet. As a source of the enzyme prenylated protein methyltransferase (PPTMase) served rat cerebellar membranes which are known to be membranes enriched with this enzyme (Ben-Baruch, Biochem. Biophys. Res. Commun., 195, 282-288. (1993)).
Charles River adult male rats were used for preparation of cerebellar synaptosomal membranes. Cerebella were removed after decapitation and homogenized in 0.32M sucrose containing 50 mM Tris-HCl pH 7.4, 3 mM EDTA, 1 mM EGTA, 5 unit/ml aprotinin and 5 μg/ml pepstatin (buffer A) to yield 10% (w/v) homogenates. Nuclear fractions were obtained by 10 min. 600×g centrifugation and synaptosomal fractions were obtained by 20 mins. 14,500×g centrifugation. Membranes of the various cell types used were prepared in the above buffer A by a 60 min. spin at 100,000×g.
Pellets were resuspended in the homogenization buffer and stored at −70° C. Methylation assays were performed at 37° C. in 50 mM Tris-HCl buffer pH 7.4, using 75-125 μg protein, 25 μM [methyl-^3H]AdoMet ([…] in DMSO) in a total volume of 50 μl. DMSO concentration in all assays was 4%.
Reactions were terminated after 10 min. by adding 500 μl chloroform methanol (1:1) and a subsequent addition of 250 μl H2O, mixing them and subsequently by phase separation. A portion of 125 μl of the chloroform phase was dried down at 40° C. and 200 μl of 1M NaOH/1% SDS solution were added thereto. The [^3H]methanol thus formed was counted by the vapor phase equilibrium method as described previously (Hakiai et al., Cell Mol. Neurobiol., 11, 415-431, (1991); Lenner et al., Cell Mol. Neurbiol., 12, 333 and 3351, (1992); Ben-Baruch et al., Biochem. Biophy. Res. Commun., 195, 282-288, (1993)). Typical background counts (i.e. counts of methylation with no AFC added) were 50-100 cpm while typical methylation counts with AFC as a substrate yielded 500 to 6000 cpm. Assays were performed in triplicate and background counts subtracted. Methylation of endogenous substrates, in intact cells, and [α-^32P] GTP-blot overlay assays and gel electrophoreses were performed as detailed previously (Hakiai et al., supra (1991); Lenner et al., supra (1993)).

[2] = test system: Ha-ras-transformed rat1 cells; assay: Growth of ras-transformed rat1 cells (cell counting); assay type: cell-based, rat; conditions: for EC50: Rattus norvegicus, 168 h, day 7 of drug treatment, estimated from dose response curves, read-out: Inhibition of rab-transformed rat1 cell growth EC50; for effects on cell growth of ras-transformed rat1 cells: drug concentrations up to 200 μM
Excerpt: The cell lines employed were rat1, -EJ, which are rat1 cells stably expressing Val- 12 activated human Ha-ras gene (Land H. et al., Nature, 304, 596-602, (1983)); V-raf-3T3, which are 3T3 cells stably expressing the V-raf gene (Xu, N., et al., Proc. Natl. Acad. Sci., 90, 6741-6745); RB-22, which are 3T3 cells stably expressing the rat Erb-B2 gene (Peles, et al., EMBO J., 10, 2077-2086 (1991)) CO6O cells (SV40-CHO), which are CHE cells stably expressing the SV-40 T-antigen gene (Lavi, Proc. Natl. Acad. Sci., 78, 6144-6148 (1981)); human endometrial carcinoma cell line HEC1A, which are cells that express activated K-ras (Enomoto T., Cancer Res., 50, 6139-6145; mouse B16F10 melanoma cells, rat pheochromocytoma PC12 cells, […] cells CHE and COS cells.
HEC1A, V-raf-3T3 and SV40-CHE cells were grown in Dulbecco's modified Eagle medium (DMEM) containing 10% fetal calf serum (FCS), 4 mM L-glutamine, 10 μg/ml streptomycin and 10 U/ml penicillin. Rat1 and -EJ cells were grown in the same medium except that it was supplemented with 12.5 U/ml nyostatin. RB-22 cells were grown in modified DMEM (1 mM sodium pyruvate, 20 mM sodium bicarbonate)/10% FCS containing 4 mM L-glutamine, […] streptomycin, 10 U/ml penicillin. PC-12 cells were grown in DMEM 15% FCS/5% horse serum and the above noted antibiotics.
HEC1A cells were plated in 24 well plates at a density of 5×10^3 cells per well and fed with 1 ml of medium. The cells were grown at 37° C. in a humidified atmosphere of 95%/5% air/CO2. All other cell types employed were plated in 24 well plates at a density of 2×10^3 cells per well and fed with the appropriate medium.
Cultures were treated with farnesyl derivatives or with solvent either 3 hrs following plating or one day after plating as indicated. […] Control cultures received 0.1% DMSO only. Cultures were fed on days 6, 7 and 9 of the experiment with the drugs or with solvent-containing media.
Cells were counted following 3, 7 and 10 days of beginning of treatments with drugs. For counting, cells were detached from plates with trypsin/EDTA, and collected by a low speed spin in the presence of DMEM/10% FCS. The pelleted cells were resuspended in a small volume of DMEM/10% FCS and counted under the microscope. Viability of cells was estimated by staining with (3-(4,5-dimethylthiosol-2-yl)-2,5-diphenyltetrazolium bromide (MTT) and microscopic examination of the stained and unstained cells, or spectrophotometric estimation (OD490, 590) of the total stain in each well. Non viable cells were estimated by the trypan blue exclusion method.
Cells were plated at a density 2×10^3/well and received either solvent or drugs one day later. Following 3, 7, or 10 days of the drugs-treatment as described above, cells were collected and the number of cells in each well was estimated by direct counting. […] The effect was apparent after a delay of at least three days. About 40-60% inhibition of cell growth was induced either by FTA or by FTS observed on days 7 and 10 of the treatment.

ras methylation = conditions: ras-transformed NTH3T3 cells; cited from earlier work
[3] = test system: ras-transformed NTH3T3 cells; conditions: cited from earlier work
neutrophils chemotaxis = conditions: cited from earlier work
platelet aggregation = conditions: cited from earlier work

Compound: CC(C)=CCC/C(C)=C/CC/C(C)=C/CSc1ccc(N)cc1C(=O)O [5-amino FTS]
- serves as substrate for PPMTase methylation [1]: do not serve as substrates
- Ki [1]: 66.1 to 80.5 µM
- EC50 [2]: > 200 µM
- effects on cell growth of ras-transformed rat1 cells [2]: not active

Compound: CC(=O)N[C@@H](CSC/C=C(\C)CC/C=C(\C)CCC=C(C)C)C(=O)O (stereo in doubt) [AFC, N-acetyl-trans-trans-farnesyl-L-cysteine]
- inhibition of ras methylation (ras methylation): can inhibit ras methylation
- inhibition of cell growth [3]: does not inhibit their growth
- inhibition of neutrophils chemotaxis (neutrophils chemotaxis): inhibit
- inhibition of platelet aggregation (platelet aggregation): inhibit
- [3H-methyl]ester formed ([1]; 100 μM AFC alone as substrate): 3200 ± 130 cpm/assay
- [3H-methyl]ester formed ([1]; 200 μM of the substance alone as substrate): 3700 ± 150 cpm/assay

Compound: CC(C)=CCC/C(C)=C/CC/C(C)=C/CNc1ccc(Cl)c(C(=O)O)c1 [NFCB, 2-chloro-5-farnesylaminobenzoic acid]
- serves as substrate for PPMTase methylation [1]: do not serve as substrates
- Ki [1]: 6.6 to 9.5 µM
- EC50 [2]: 20 to 40 µM
- effects on cell growth of ras-transformed rat1 cells [2]: effects similar to those observed with FTS and FTA
